Tests used:
Type in all cases: in vivo
[1] = system: barnyardgrass (Echinochloa crus-galli); experiment: Test B flooded paddy test, visual plant response rating; settings: 250 g ai/ha, Flood, applied to paddy water, 2-leaf stage, evaluated after 13 to 15 days
In short: (§1)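 Test pots are flooded 3 cm above the soil at treatment, and the test substance is introduced into this standing water. After keeping the flood level and growing plants, treated at the 2-leaf stage, for 13 to 15 days under glass, injury is assessed visually versus controls.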

[2] = system: sedge, umbrella (small-flower umbrella sedge, Cyperus difformis); experiment: as above; settings: 250 g ai/ha, Flood, applied to paddy water, 2-leaf stage, evaluated after 13 to 15 days
In short: as §1

[3] = system: ducksalad (Heteranhera limosa); experiment: as above; settings: 250 g ai/ha, Flood, applied to paddy water, 2-leaf stage, evaluated after 13 to 15 days
In short: as §1

rice (Oryza sativa) = experiment: as above; settings: 250 g ai/ha, Flood, applied to paddy water, 2-leaf stage, evaluated after 13 to 15 days
In short: as §1

[4] = system: barnyardgrass (Echinochloa crus-galli); experiment: Test A preemergence, visual plant response rating; settings: for Barnyardgrass plant response rating: 125 g ai/ha, preemergence, 0 to 100 scale, 0 no effect, 100 complete control; for Barnyardgrass plant response rating (0 to 100 scale): 500 g ai/ha Preemergence, approx. 10 days
In short: (§2)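 Greenhouse evaluation, approx. 10 days post-spray. Soil: loam + sand. Postemergence stage: 1–2 leaves, height 2–10 cm. Vehicle: non-phytotoxic solvent blend with surfactant. Score: visual injury on a 0 (no effect) to 100 (complete control) scale.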

[5] = system: Italian ryegrass (Lolium multiflorum); experiment: Test A preemergence, visual plant response rating; settings: for Ryegrass, Italian plant response rating: 125 g ai/ha, preemergence, 0 to 100 scale, 0 no effect, 100 complete control; for Ryegrass, Italian plant response rating (0 to 100 scale): 500 g ai/ha Preemergence, approx. 10 days
In short: as §2

kochia (Kochia scoparia) [6] = experiment: Test A preemergence, visual plant response rating; settings: for Kochia plant response rating: 125 g ai/ha, preemergence, 0 to 100 scale, 0 no effect, 100 complete control; for Kochia plant response rating (0 to 100 scale): 500 g ai/ha Preemergence, approx. 10 days
In short: as §2

[7] = system: foxtail, giant (giant foxtail, Setaria faberii); experiment: Test A preemergence, visual plant response rating; settings: for Foxtail, Giant plant response rating: 125 g ai/ha, preemergence, 0 to 100 scale, 0 no effect, 100 complete control; for Foxtail, Giant plant response rating (0 to 100 scale): 500 g ai/ha Preemergence, approx. 10 days
In short: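 Compared with untreated controls, treated plants received a visual injury score on a 0–100 scale around 10 days after application. The compound, in a non-phytotoxic solvent with surfactant, was given as a preemergence soil spray or postemergence at the one- to two-leaf stage.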

[8] = system: pigweed (Amaranthus retroflexus); experiment: Test A preemergence, visual plant response rating; settings: for Pigweed plant response rating: 125 g ai/ha, preemergence, 0 to 100 scale, 0 no effect, 100 complete control; for Pigweed plant response rating (0 to 100 scale): 500 g ai/ha Preemergence, approx. 10 days
In short: as §2

[9] = system: ragweed (common ragweed, Ambrosia elatior); experiment: Test A preemergence, visual plant response rating; settings: for Ragweed plant response rating: 125 g ai/ha, preemergence, 0 to 100 scale, 0 no effect, 100 complete control; for Ragweed plant response rating (0 to 100 scale): 500 g ai/ha Preemergence, approx. 10 days
In short: as §2

[10] = system: barnyardgrass (Echinochloa crus-galli); experiment: Test A postemergence, visual plant response rating; settings: for Barnyardgrass plant response rating (0 to 100 scale): 500 g ai/ha, postemergence, 0 is no effect, 100 is complete control; for Barnyardgrass plant response rating: Postemergence, 125 g ai/ha, 0 to 100 scale (0 no effect, 100 complete control)
In short: as §2

[11] = system: galium (catchweed bedstraw, Galium aparine); experiment: Test A postemergence, visual plant response rating; settings: for Galium plant response rating (0 to 100 scale): 500 g ai/ha, postemergence, 0 is no effect, 100 is complete control; for Galium plant response rating: Postemergence, 125 g ai/ha, 0 to 100 scale (0 no effect, 100 complete control)
In short: as §2

[12] = system: wheat (Triticum aestivum); experiment: Test A postemergence, visual plant response rating; settings: for Wheat plant response rating (0 to 100 scale): 500 g ai/ha, postemergence, 0 is no effect, 100 is complete control; for Wheat plant response rating: Postemergence, 125 g ai/ha, 0 to 100 scale (0 no effect, 100 complete control)
In short: as §2

[13] = system: Italian ryegrass (Lolium multiflorum); experiment: Test A postemergence, visual plant response rating; settings: for Ryegrass, Italian plant response rating (0 to 100 scale): 500 g ai/ha, postemergence, 0 is no effect, 100 is complete control; for Ryegrass, Italian plant response rating: Postemergence, 125 g ai/ha, 0 to 100 scale (0 no effect, 100 complete control)
In short: as §2

kochia (Kochia scoparia) [14] = experiment: Test A postemergence, visual plant response rating; settings: for Kochia plant response rating (0 to 100 scale): 500 g ai/ha, postemergence, 0 is no effect, 100 is complete control; for Kochia plant response rating: Postemergence, 125 g ai/ha, 0 to 100 scale (0 no effect, 100 complete control)
In short: as §2

[15] = system: foxtail, giant (giant foxtail, Setaria faberii); experiment: Test A postemergence, visual plant response rating; settings: for Foxtail, Giant plant response rating (0 to 100 scale): 500 g ai/ha, postemergence, 0 is no effect, 100 is complete control; for Foxtail, Giant plant response rating: Postemergence, 125 g ai/ha, 0 to 100 scale (0 no effect, 100 complete control)
In short: as §2

corn (Zea mays) = experiment: Test A postemergence, visual plant response rating; settings: for Corn plant response rating (0 to 100 scale): 500 g ai/ha, postemergence, 0 is no effect, 100 is complete control; for Corn plant response rating: Postemergence, 125 g ai/ha, 0 to 100 scale (0 no effect, 100 complete control)
In short: as §2

[16] = system: pigweed (Amaranthus retroflexus); experiment: Test A postemergence, visual plant response rating; settings: for Pigweed plant response rating (0 to 100 scale): 500 g ai/ha, postemergence, 0 is no effect, 100 is complete control; for Pigweed plant response rating: Postemergence, 125 g ai/ha, 0 to 100 scale (0 no effect, 100 complete control)
In short: as §2

[17] = system: ragweed (common ragweed, Ambrosia elatior); experiment: Test A postemergence, visual plant response rating; settings: for Ragweed plant response rating (0 to 100 scale): 500 g ai/ha, postemergence, 0 is no effect, 100 is complete control; for Ragweed plant response rating: Postemergence, 125 g ai/ha, 0 to 100 scale (0 no effect, 100 complete control)
In short: as §2

[18] = system: blackgrass (Alopecurus myosuroides); experiment: Test A postemergence, visual plant response rating; settings: for Blackgrass plant response rating (0 to 100 scale): 500 g ai/ha, postemergence, 0 is no effect, 100 is complete control; for Blackgrass plant response rating: Postemergence, 125 g ai/ha, 0 to 100 scale (0 no effect, 100 complete control)
In short: as §2

## CON=C(c1c(O)c(C)nn(C)c1=O)c1ccc(C)c2ccccc12 [Compound 131]
[1]
  Plant response rating, Barnyardgrass (0 to 100 scale, 0 is no effect, 100 is complete control): 0
[2]
  Plant response rating, Sedge, Umbrella (0 to 100 scale, 0 is no effect, 100 is complete control): 0
[3]
  Plant response rating, Ducksalad (0 to 100 scale, 0 is no effect, 100 is complete control): 0
Rice (Oryza sativa)
  Plant response rating, Rice (0 to 100 scale, 0 is no effect, 100 is complete control): 0
[4]
  Barnyardgrass plant response rating: 0
  Barnyardgrass plant response rating (0 to 100 scale): 60
[5]
  Ryegrass, Italian plant response rating: 0
  Ryegrass, Italian plant response rating (0 to 100 scale): 0
Kochia (Kochia scoparia) [6]
  Kochia plant response rating: 0
  Kochia plant response rating (0 to 100 scale): 20
[7]
  Foxtail, Giant plant response rating: 60
  Foxtail, Giant plant response rating (0 to 100 scale): 70
[8]
  Pigweed plant response rating: 0
  Pigweed plant response rating (0 to 100 scale): 0
[9]
  Ragweed plant response rating: 60
  Ragweed plant response rating (0 to 100 scale): 80
[10]
  Barnyardgrass plant response rating (0 to 100 scale): 50
  Barnyardgrass plant response rating: 20
[11]
  Galium plant response rating (0 to 100 scale): 80
  Galium plant response rating: 80
[12]
  Wheat plant response rating (0 to 100 scale): 0
  Wheat plant response rating: 0
[13]
  Ryegrass, Italian plant response rating (0 to 100 scale): 10
  Ryegrass, Italian plant response rating: 0
Kochia (Kochia scoparia) [14]
  Kochia plant response rating (0 to 100 scale): 30
  Kochia plant response rating: 10
[15]
  Foxtail, Giant plant response rating (0 to 100 scale): 50
  Foxtail, Giant plant response rating: 10
Corn (Zea mays)
  Corn plant response rating (0 to 100 scale): 20
  Corn plant response rating: 0
[16]
  Pigweed plant response rating (0 to 100 scale): 10
  Pigweed plant response rating: 0
[17]
  Ragweed plant response rating (0 to 100 scale): 80
  Ragweed plant response rating: 80
[18]
  Blackgrass plant response rating (0 to 100 scale): 50
  Blackgrass plant response rating: 30

## CON=C(c1cccc(C(F)(F)F)c1)c1c(O)c(C)nn(C)c1=O [Compound 56]
[1]
  Plant response rating, Barnyardgrass (0 to 100 scale, 0 is no effect, 100 is complete control): 0
[2]
  Plant response rating, Sedge, Umbrella (0 to 100 scale, 0 is no effect, 100 is complete control): 15
[3]
  Plant response rating, Ducksalad (0 to 100 scale, 0 is no effect, 100 is complete control): 30
Rice (Oryza sativa)
  Plant response rating, Rice (0 to 100 scale, 0 is no effect, 100 is complete control): 20
[4]
  Barnyardgrass plant response rating: 0
  Barnyardgrass plant response rating (0 to 100 scale): 50
[5]
  Ryegrass, Italian plant response rating: 0
  Ryegrass, Italian plant response rating (0 to 100 scale): 40
Kochia (Kochia scoparia) [6]
  Kochia plant response rating: 0
  Kochia plant response rating (0 to 100 scale): 60
[7]
  Foxtail, Giant plant response rating: 0
  Foxtail, Giant plant response rating (0 to 100 scale): 40
[8]
  Pigweed plant response rating: 30
  Pigweed plant response rating (0 to 100 scale): 90
[9]
  Ragweed plant response rating: 70
  Ragweed plant response rating (0 to 100 scale): 50
[10]
  Barnyardgrass plant response rating (0 to 100 scale): 10
  Barnyardgrass plant response rating: 0
[11]
  Galium plant response rating (0 to 100 scale): 80
  Galium plant response rating: 70
[12]
  Wheat plant response rating (0 to 100 scale): 0
  Wheat plant response rating: 0
[13]
  Ryegrass, Italian plant response rating (0 to 100 scale): 50
  Ryegrass, Italian plant response rating: 20
Kochia (Kochia scoparia) [14]
  Kochia plant response rating (0 to 100 scale): 50
  Kochia plant response rating: 20
[15]
  Foxtail, Giant plant response rating (0 to 100 scale): 0
  Foxtail, Giant plant response rating: 0
Corn (Zea mays)
  Corn plant response rating (0 to 100 scale): 0
  Corn plant response rating: 0
[16]
  Pigweed plant response rating (0 to 100 scale): 70
  Pigweed plant response rating: 50
[17]
  Ragweed plant response rating (0 to 100 scale): 50
  Ragweed plant response rating: 10
[18]
  Blackgrass plant response rating (0 to 100 scale): 40
  Blackgrass plant response rating: 30

Source: patent US20210045385A1, “PYRIDAZINONE-SUBSTITUTED KETOXIMES AS HERBICIDES” (FMC Corporation, priority 2018, published 2021)
